Measured values from ChEMBL document CHEMBL1137630, “Development of resistance in wild-type and hypermutable Pseudomonas aeruginosa strains exposed to clinical pharmacokinetic profiles of meropenem and ceftazidime simulated in vitro” (Antimicrob Agents Chemother, 2007).
≈ marks a conversion by molar mass, not a printed value. Calls of active or inactive are those of the source. The calls are words filed in the database; no cut-off is given here.

Columns and labels:
Pseudomonas aeruginosa [1] = test: Antibacterial activity against Pseudomonas aeruginosa PAO1 by CLSI broth microdilution method; assay type: functional
Pseudomonas aeruginosa [2] = test: Antibacterial activity against Pseudomonas aeruginosa PAO1/CAZ mutant by CLSI broth microdilution method; assay type: functional
Pseudomonas aeruginosa [3] = test: Antibacterial activity against Pseudomonas aeruginosa PAO1/MEM mutant by CLSI broth microdilution method; assay type: functional
Pseudomonas aeruginosa [4] = test: Antibacterial activity against Pseudomonas aeruginosa PAO1/CAZ mutant at 30 ug/disk in absence of cephalosporinase inhibitor cloxacillin by disk diffusion test; assay type: functional; conditions: read-out: DIZ
[5] = Cmax in PK/PD in vitro model infused with 2g at 8hr intervals; assay type: ADME; set-up: dose 2 g; conditions: iv
Pseudomonas aeruginosa [6] = test: Antibacterial activity against Pseudomonas aeruginosa PAO1 assessed as reduction of bacterial count in in vitro PK/PD model at 2 g infused every 8 hrs interval measured after first dose relative to initial inoculum; assay type: functional, organism-based
Pseudomonas aeruginosa [7] = test: Antibacterial activity against Pseudomonas aeruginosa PAO1 assessed as bacterial count in in vitro PK/PD model at 2 g infused every 8 hrs interval measured 40 hrs after first dose relative to initial inoculum; assay type: functional, organism-based
Pseudomonas aeruginosa [8] = test: Antibacterial activity against Pseudomonas aeruginosa PAO1 at 30 ug/disk in presence of cephalosporinase inhibitor cloxacillin by disk diffusion test; assay type: functional; conditions: read-out: DIZ
[9] = %T>MIC against hypermutable Pseudomonas aeruginosa 12-09-15 isolate in in vitro PK/PD model at 2 g infused thrice daily at 8 hrs interval; assay type: functional
Pseudomonas aeruginosa [10] = test: microbe, parasite or virus in culture; conditions: isolate 12-09-15
Description: Antibacterial activity against hypermutable Pseudomonas aeruginosa isolate 12-09-15 by CLSI broth microdilution method

Pseudomonas aeruginosa [11] = test: Antibacterial activity against Pseudomonas aeruginosa PAO1 assessed as reduction of bacterial count in in vitro PK/PD model at 2 g infused every 8 hrs interval measured after second dose relative to initial inoculum; assay type: functional
Pseudomonas aeruginosa [12] = test: Antibacterial activity against Pseudomonas aeruginosa PAO1/CAZ mutant at 30 ug/disk in presence of cephalosporinase inhibitor cloxacillin by disk diffusion test; assay type: functional; conditions: read-out: DIZ
Pseudomonas aeruginosa [13] = test: Antibacterial activity against Pseudomonas aeruginosa PAO1 assessed as maximum bactericidal effect in in vitro PK/PD model by measuring change in bacterial count at 2 g infused every 8 hrs interval measured 17.5 hrs after initial dose relative to initial inoculum
[14] = Half life in in vitro PK/PD model at 2 g infused thrice daily at 8 hrs interval; assay type: ADME; conditions: iv
Pseudomonas aeruginosa [15] = test: Antibacterial activity against Pseudomonas aeruginosa PAO1 at 30 ug/disk in absence of cephalosporinase inhibitor cloxacillin by disk diffusion test; assay type: functional; conditions: read-out: DIZ
[16] = %T>MIC against Pseudomonas aeruginosa PAO1 in in vitro PK/PD model at 2 g infused thrice daily at 8 hrs interval; assay type: functional
Pseudomonas aeruginosa [17] = test: Antibacterial activity against Pseudomonas aeruginosa PAO1 in in vitro PK/PD model assessed as AAC (0 to 8 hrs) at 2 g infused thrice daily at 8 hrs interval measured after first dose; assay type: functional
Pseudomonas aeruginosa [18] = test: Antibacterial activity against Pseudomonas aeruginosa PAO1 in in vitro PK/PD model assessed as AAC (0 to 24 hrs) at 2 g infused thrice daily at 8 hrs interval; assay type: functional
Pseudomonas aeruginosa [19] = test: Antibacterial activity against hypermutable Pseudomonas aeruginosa 12-09-15/MEM mutant by broth microdilution method
Pseudomonas aeruginosa [20] = test: Antibacterial activity against hypermutable Pseudomonas aeruginosa isolate 12-09-15 in in vitro PK/PD model assessed as AAC (0 to 24 hrs) at 1 g infused thrice daily at 8 hrs interval; assay type: functional
Pseudomonas aeruginosa [21] = test: Antibacterial activity against Pseudomonas aeruginosa PAO1 assessed as reduction of bacterial count in in vitro PK/PD model at 1 g infused every 8 hrs interval measured after second dose relative to initial inoculum; assay type: functional
Pseudomonas aeruginosa [22] = test: Antibacterial activity against Pseudomonas aeruginosa PAO1 assessed as change in bacterial count in in vitro PK/PD model at 1 g infused every 8 hrs interval measured after 8 hrs relative to initial inoculum; assay type: functional, organism-based
Pseudomonas aeruginosa [23] = test: Antibacterial activity against hypermutable Pseudomonas aeruginosa isolate 12-09-15 assessed as change in bacterial count in in vitro PK/PD model at 1 g infused every 8 hrs interval measured after 8 hrs relative to initial inoculum; assay type: functional, organism-based
Pseudomonas aeruginosa [24] = test: Antibacterial activity against hypermutable Pseudomonas aeruginosa isolate 12-09-15 assessed as bacterial count in in vitro PK/PD model at 1 g infused every 8 hrs interval measured 40 hrs after first dose relative to initial inoculum; assay type: functional, organism-based
Pseudomonas aeruginosa [25] = test: Antibacterial activity against Pseudomonas aeruginosa PAO1 assessed as bacterial count in in vitro PK/PD model at 1 g infused every 8 hrs interval measured 40 hrs after first dose relative to initial inoculum; assay type: functional, organism-based
[26] = Ratio of Cmax in in vitro PK/PD model at 1 g infused at every 8 hrs intervals to MIC for Pseudomonas aeruginosa PAO1; assay type: functional
[27] = %T>MIC against hypermutable Pseudomonas aeruginosa isolate 12-09-15 in in vitro PK/PD model at 1 g infused thrice daily at 8 hrs interval; assay type: functional
[28] = Cmax in PK/PD in vitro model infused with 1g at 8hr intervals; assay type: ADME; set-up: dose 1 g; conditions: iv
[29] = Half life in in vitro PK/PD model at 1 g infused thrice daily at 8 hrs interval; assay type: ADME; conditions: iv
Pseudomonas aeruginosa [30] = test: Antibacterial activity against Pseudomonas aeruginosa PAO1 in in vitro PK/PD model assessed as AAC (0 to 8 hrs) at 1 g infused thrice daily at 8 hrs interval measured after first dose; assay type: functional
[31] = Ratio of Cmax in in vitro PK/PD model at 1 g infused at every 8 hrs intervals to MIC for hypermutable Pseudomonas aeruginosa isolate 12-09-15; assay type: functional
[32] = %T>MIC against Pseudomonas aeruginosa PAO1 in in vitro PK/PD model at 1 g infused thrice daily at 8 hrs interval; assay type: functional
Pseudomonas aeruginosa [33] = test: Antibacterial activity against hypermutable Pseudomonas aeruginosa isolate 12-09-15 assessed as maximum bactericidal effect in in vitro PK/PD model by measuring change in bacterial count at 1 g infused every 8 hrs interval measured 3 hrs after first dose relative to initial inoculum; assay type: functional
Pseudomonas aeruginosa [34] = test: Antibacterial activity against Pseudomonas aeruginosa PAO1 assessed as maximum bactericidal effect in in vitro PK/PD model by measuring change in bacterial count at 1 g infused every 8 hrs interval measured 1 hr after first dose relative to initial inoculum; assay type: functional
Pseudomonas aeruginosa [35] = test: Antibacterial activity against Pseudomonas aeruginosa PAO1 in in vitro PK/PD model assessed as AAC (0 to 24 hrs) at 1 g infused thrice daily at 8 hrs interval; assay type: functional

SMILES: C[C@H]1COc2c(N3CCN(C)CC3)c(F)cc3c(=O)c(C(=O)O)cn1c23.C[C@H]1COc2c(N3CCN(C)CC3)c(F)cc3c(=O)c(C(=O)O)cn1c23.O [LEVOFLOXACIN]
- MIC (Pseudomonas aeruginosa [1]): 0.5 µg/mL
- MIC (Pseudomonas aeruginosa [2]): 0.5 µg/mL
- MIC (Pseudomonas aeruginosa [3]): 0.5 µg/mL

SMILES: CC(C)(O/N=C(\C(=O)N[C@@H]1C(=O)N2C(C(=O)[O-])=C(C[n+]3ccccc3)CS[C@H]12)c1csc(N)n1)C(=O)O [CEFTAZIDIME]
- zone of inhibition at 30 µg/disc (Pseudomonas aeruginosa [4]): 17 mm
- Cmax [5]: 174 µg/mL
- Activity (Pseudomonas aeruginosa [6]): inactive
- Activity (Pseudomonas aeruginosa [7]): inactive
- zone of inhibition at 30 µg/disc (Pseudomonas aeruginosa [8]): 27 mm
- T>MIC [9]: 45.8%
- MIC (Pseudomonas aeruginosa [10]): 16 µg/mL (≈ 29.3 µM)
- fold change (FC) (Pseudomonas aeruginosa [11]): 1
- zone of inhibition at 30 µg/disc (Pseudomonas aeruginosa [12]): 27 mm
- deltalog10CFU (Pseudomonas aeruginosa [13]): -1.28 /ml
- half-life [14]: 1.96 h
- MIC (Pseudomonas aeruginosa [1]): 2 µg/mL (≈ 3.66 µM)
- zone of inhibition at 30 µg/disc (Pseudomonas aeruginosa [15]): 27 mm
- MIC (Pseudomonas aeruginosa [2]): 32 µg/mL (≈ 58.5 µM)
- T>MIC [16]: 100%
- AAC (Pseudomonas aeruginosa [17]): -0.19 deltalog10CFU/ml.hr
- AAC (Pseudomonas aeruginosa [18]): 9.29 deltalog10CFU/ml.hr

SMILES: C[C@@H](O)[C@H]1C(=O)N2C(C(=O)O)=C(S[C@@H]3CN[C@H](C(=O)N(C)C)C3)[C@H](C)[C@H]12 [MEROPENEM]
- MIC (Pseudomonas aeruginosa [19]): 16 µg/mL (≈ 41.7 µM)
- AAC (Pseudomonas aeruginosa [20]): -19.58 deltalog10CFU/ml.hr
- deltalog10CFU (Pseudomonas aeruginosa [21]): -0.83 /ml
- Activity (Pseudomonas aeruginosa [22]): inactive
- Activity (Pseudomonas aeruginosa [23]): inactive
- MIC (Pseudomonas aeruginosa [10]): 2 µg/mL (≈ 5.22 µM)
- Activity (Pseudomonas aeruginosa [24]): inactive
- Activity (Pseudomonas aeruginosa [25]): inactive
- Ratio [26]: 112
- T>MIC [27]: 41.7%
- Cmax [28]: 56.1 µg/mL
- MIC (Pseudomonas aeruginosa [1]): 0.5 µg/mL (≈ 1.3 µM)
- half-life [29]: 0.45 h
- AAC (Pseudomonas aeruginosa [30]): 5.3 deltalog10CFU/ml.hr
- Ratio [31]: 28.1
- T>MIC [32]: 66.7%
- deltalog10CFU (Pseudomonas aeruginosa [33]): -1.23 /ml
- deltalog10CFU (Pseudomonas aeruginosa [34]): -1.09 /ml
- MIC (Pseudomonas aeruginosa [3]): 4 µg/mL (≈ 10.4 µM)
- AAC (Pseudomonas aeruginosa [35]): -22.46 deltalog10CFU/ml.hr

SMILES: CCN1CCN(C(=O)N[C@@H](C(=O)N[C@@H]2C(=O)N3[C@@H]2SC(C)(C)[C@@H]3C(=O)O)c2ccccc2)C(=O)C1=O [PIPERACILLIN]
- MIC (Pseudomonas aeruginosa [1]): 4 µg/mL (≈ 7.73 µM)
- MIC (Pseudomonas aeruginosa [2]): 64 µg/mL (≈ 124 µM)

SMILES: C[C@@H](O)[C@H]1C(=O)N2C(C(=O)O)=C(SCCNC=N)C[C@H]12 [IMIPENEM ANHYDROUS]
- MIC (Pseudomonas aeruginosa [19]): 16 µg/mL (≈ 53.4 µM)
- MIC (Pseudomonas aeruginosa [10]): 4 µg/mL (≈ 13.4 µM)
- MIC (Pseudomonas aeruginosa [1]): 2 µg/mL (≈ 6.68 µM)
- MIC (Pseudomonas aeruginosa [3]): 16 µg/mL (≈ 53.4 µM)
